pIC50: −log10 of the molar value.
The molecules below were run against T1, HMG-CoA synthase (Rattus norvegicus, UniProt P17425) (assay: HMG-CoA synthase inhibition assay). Details: enzyme from rat liver; 5 min preincubation, 30°, pH 8.0; [14C]-acetyl-CoA.
T1 construct: The livers from male Charles River CD rats (225-350 g) were homogenized in 0.25M sucrose; from tissue; host or cells: liver of male Charles River CD rats
T1 sequence (P17425 1-520): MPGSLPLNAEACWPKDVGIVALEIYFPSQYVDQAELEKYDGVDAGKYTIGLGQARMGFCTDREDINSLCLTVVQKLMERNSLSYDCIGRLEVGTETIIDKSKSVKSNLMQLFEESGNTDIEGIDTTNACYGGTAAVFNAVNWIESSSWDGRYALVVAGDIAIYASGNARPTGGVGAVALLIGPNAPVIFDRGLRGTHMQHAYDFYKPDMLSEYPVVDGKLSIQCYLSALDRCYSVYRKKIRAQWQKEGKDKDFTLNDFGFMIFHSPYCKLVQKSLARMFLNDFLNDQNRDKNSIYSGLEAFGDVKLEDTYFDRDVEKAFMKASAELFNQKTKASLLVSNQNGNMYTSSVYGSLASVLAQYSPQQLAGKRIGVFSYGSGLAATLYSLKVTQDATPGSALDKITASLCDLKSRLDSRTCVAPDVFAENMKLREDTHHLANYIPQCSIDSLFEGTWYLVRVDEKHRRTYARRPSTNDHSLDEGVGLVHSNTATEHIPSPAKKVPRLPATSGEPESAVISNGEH
Type: biochemical
Description: The intrinsic HMG--CoA synthase inhibition activity of the compounds of this invention is measured by the standard in vitro protocol described below:
The livers from male Charles River CD rats (225-350 g) were homogenized in 0.25M sucrose which was adjusted with phenylmethylsulfonylfluoride (PMSF) and N-p-tosyl-1-lysine chloromethyl ketone (TLCK) so that the final concentration of each was 50 and 25 μg/ml, respectively. The homogenate was first centrifuged at 700×g for 10 minutes, the supernatant decanted and recentrifuged at 7,700×g for 20 minutes. This supernatant was filtered through a fine nylon screen to remove most of the fat layer and recentrifuged at 100,000×g for 1 hour. This supernatant was removed and 1M potassium phosphate, dithiothreitol (DTT) and ethylene glycolbis(β-aminoethyl ether)-N,N,N',N'-tetraacetic acid (EGTA) added to give a final concentration of 0.1M (pH 7.2), 0.5 mM and 0.1 mM, respectively. Solid ammonium sulfate was added to 50% saturation to the protein solution, it was centrifuged at 15,000×g and the supernatant discarded. This precipitated protein could be stored at -70° C. for at least one month with very little loss of activity. The ammonium sulfate precipitate was dissolved in an minimal amount of 0.06M potassium phosphate buffer (pH 7.2) containing 0.5 mM dithiothreitol and 0.1 mM EGTA (referred to as 0.06M phosphate buffer) and dialyzed overnight against 2 liters of the same buffer to remove the ammonium sulfate and to inactivate HMG--CoA lyase [Clinkenbeard, et al., J. Biol. Chem. 250, 3108-3116 (1975)].
The dialyzed extract was added to a column of DEAE-52 (Whatman) which had been equilibrated with 0.06M phosphate buffer (10 mg of protein to 1 ml bed volume of the resin). The DEAE-cellulose was eluted with 0.06M phosphate buffer until the optical density at 280 nm was essentially zero. This fraction contained the β-ketoacetyl-CoA thiolase activity. The HMG--CoA synthase was eluted from the column with 0.1M KCl in 0.06M phosphate buffer (pH 7.2) containing 0.5 mM DTT and 0.1 mM EGTA, and was virtually free of all thiolase activity. The protein was precipitated by the addition of ammonium sulfate to give 50% saturation. This solution was stirred for 10 minutes at 4° C. and the precipitate collected by centrifugation at 15,000 rpm for 10 minutes. The supernatant was discarded and the precipitate dissolved in a minimum of 0.06M phosphate buffer, pH 7.2 (about 10 ml) and the enzyme stored at -80° C.
HMG-- CoA Synthase Inhibition Assay
Enzyme protein (ca. 12.2 μg) was added to a solution containing 117 mM Tris-HCl (pH 8.0), 11.7 mM MgCl2, 1.17 mM Ethylenediaminetetraacetic acid (EDTA), 0.58 mM dithiothreitol, and the indicated concentrations of the test compound (added as a 2 μg/ml solution in dimethylsulfoxide). The incubation took place in a volume of 0.085 ml at 30° in a shaking water bath. After 5 minutes, 15 μl of a solution containing acetoacetyl-CoA and 0.1 μCi of 1-[^14 C]-acetyl-CoA was added to give a final concentrations of 0.1 and 0.4 mM, respectively. […] Radioactivity was determined in a Packard Tri-Carb liquid scintillation counter. Percent inhibition is calculated by the formula: [formula] IC50 values were determined by plotting the log of the concentration of the test compound verses the percentage inhibition and fitting a straight line to the resulting data by using the least squares method.

Compound | pIC50
CC=CCCCCC=CC(=O)NC1CC2(OC1=O)C(O)C1OC1C1OC12 (centres unmarked) [Compound A] | 5.16
CC=CCCCCC=CC(=O)NC1CC2(OC1=O)C(=O)C1OC1C1OC12 (centres unmarked) [Compound C] | 6.44
CC=CCCCCC=CC(=O)NC(CC1(O)C(=O)C2OC2C2OC21)C(=O)OC (stereo not drawn) [Compound B, 3,8-Dioxatricyclo(5.1.0.0^2,^4)octane-5-propanoic acid, 5-hydroxy-6-oxo-α-((1-oxo-2,8-decadienyl)amino)-, methyl ester] | 6.74

The remaining lines, values ahead:

pIC50 | Compound
5.60 | CC=CCCCCC=CC(=O)NC1CC2(OC1=O)C(=O)C1OC1C(O)C2O (centres unmarked) [Compound A-2, N-(4,5-dihydro-4',5'-dihydroxy-2',5-dioxospiro[furan-2(3H),3'-[7]oxabicyclo[4.1.0]-hept]-4-yl)-2,8-decadienamide]
< 5.00 | CC=CCCCCC=CC(=O)NC1CC2(OC1=O)C(O)C1OC1C1OC12 (centres unmarked) [Compound A-1]
